According to patent US20080177101A1, “Synthesis of isotopically labeled alpha-keto acids and esters” (Spectra Gases, Inc., priority 2006, published 2008):

Assays:
[1] = Concentration studies: stability of pyruvic acid solutions in water at higher concentrations; type: physicochemical; set-up: unit not given here; details: light, about 22° C. to about 26° C.
Description: Each of these commercial solutions were subjected to light for 6-weeks at temperatures ranging from about 22° C. to about 26° C. At each of the concentrations listed below, it was discovered that the pyruvic acid solutions were stable.

[2] = background description; cited from earlier work
[3] = Shelf storage stability of [1-^13C] pyruvic acid in water, 1H and 13C NMR spectra compared; type: physicochemical; details: 0.025M in water
Description: Samples of isotopically labeled [1-^13C] pyruvic acid, having Formula VI and synthesized as discussed immediately below, were subjected to various conditions as depicted in Table 1, in order to establish the compound's shelf storage stability.
The resulting [1-^13C] pyruvic acid was tested as follows in Table 1:
^1H and ^13C NMR spectra of the distilled [1-^13C] pyruvic acid in water (0.025M) were acquired at the onset of the study and prior to exposing the samples to the various conditions specified in Table 1. ^1H and ^13C NMR spectra were again acquired for each of the samples after being exposed to the aforementioned conditions on a weekly basis for 12-weeks. The spectra acquired after exposure were compared visually and appeared to remain unchanged as compared with the spectra acquired prior to exposure, i.e. the spectra were as expected for [1-^13C] pyruvic acid in water. As such, it was concluded that each of the samples were shelf stable. Similarly, ^1H and ^13C NMR spectra acquired after 17-weeks of exposure remained unchanged as compared with the spectra acquired prior to exposure.

[4] = Titration of aqueous sample 4 with sodium hydroxide, composition by HPLC; type: physicochemical; details: sample 4 titrated with sodium hydroxide to pH of about 6.2
Text: The molarity of sample 4 was confirmed to be 0.025M by titrating the aqueous sample with sodium hydroxide. […] It was also discovered that at pHs greater than 5.8, such as at a pH of about 6.2, some of the pyruvic acid was present in the form of a dimerized sodium salt. […] As such, it was discovered that to minimize dimmer formation, it may be necessary to control the pH of [1-^13C] pyruvate solutions, and in particular, any aqueous solution should be maintained at a pH of about 6.5 or less, more preferably 6.0 or less, and even more preferably 5.8 or less.

[5] = Sample 3, Room temperature (about 22° C. to about 26° C.), Dark
[6] = Sample 4, Room temperature (about 22° C. to about 26° C.), Light

CC(=O)C(=O)O [Pyruvic acid, 2-oxopropanoic acid]
soluble in water: Solubility in water [2]
Stable: Stability After 6-weeks ([1]; Concentration 2.3 in water) | Stability After 6-weeks ([1]; Concentration 2.8 in water) | Stability After 6-weeks ([1]; Concentration 3.8 in water) | Stability After 6-weeks ([1]; Concentration 5.7 in water) | Stability After 6-weeks ([1]; Concentration 11.3 in water)

CC(=O)[13C](=O)O [[1-^13C] pyruvic acid]
4-6%: Share of the pyruvic acid accounted for by dimerized salt [4]
Stable: Shelf stability, 12 weeks ([3]; Sample 1, −10° C., Dark) | Shelf stability, 17 weeks ([3]; Sample 1, −10° C., Dark) | Shelf stability, 12 weeks ([3]; Sample 2, 4° C., Dark) | Shelf stability, 17 weeks ([3]; Sample 2, 4° C., Dark) | Shelf stability, 12 weeks [3, 5] | Shelf stability, 17 weeks [3, 5] | Shelf stability, 12 weeks [3, 6] | Shelf stability, 17 weeks [3, 6]
